Blank lines part the entries; values can stand above or below the compound they belong to.
Experiments:
Assay type in all cases: cell-based
[1] = target: T1, Kv1.1/Kv1.1-L155P channels (Homo sapiens, UniProt Q09470, L155P); test: TEVC of oocytes co-injected with 50/50 wild-type/L155P Kv1.1 cRNA
T1 construct: expressed in transfected cells; host or cells: Xenopus laevis oocytes co-injected with 50/50 wild-type/L155P cRNA
From the text: As previously described[24], we generated cRNA transcripts encoding human Kv1.1 (wild-type and mutant) and Kv1.2, by in vitro transcription using the mMessage mMachine kit (Thermo Fisher Scientific), after vector linearization, from cDNA sub-cloned into plasmids (pTLNx) incorporating Xenopus laevis β-globin 5’ and 3’ UTRs flanking the coding region to enhance translation and cRNA stability. We injected defolliculated stage V and VI Xenopus laevis oocytes (Xenoocyte, Dexter, MI, US) with Kv1 cRNAs (1–5 ng). We incubated the oocytes at 16 °C in ND96 oocyte storage solution containing penicillin and streptomycin, with daily washing, for 2 days prior to two-electrode voltage-clamp (TEVC) recording.

[2] = target: T2, Kv1.1/Kv1.1-E283K channels (Homo sapiens, UniProt Q09470, E283K); test: TEVC of oocytes co-injected with 50/50 wild-type/E283K Kv1.1 cRNA
T2 construct: expressed in transfected cells; host or cells: Xenopus laevis oocytes co-injected with 50/50 wild-type/mutant cRNA
Description: We next tested effects on channels generated by co-injection of 50/50 wild-type/mutant Kv1.1 cRNA. Strikingly, gallic acid (1 µM) was able to hyperpolarize (by −15.5 ± 0.5 mV; n = 4; P < 0.0001) the V0.5 act of Kv1.1/Kv1.1-E283K channels, restoring voltage dependence typical of wild-type Kv1.1 (Fig. 7a–c), also inducing a −14 ± 0.7 mV hyperpolarization (n = 4; P = 0.0005) in EM of oocytes expressing Kv1.1/Kv1.1-E283K (Fig. 7d). […] Because of this hint at activity improvement in L155P channels we also applied higher concentrations (10 and 100 µM) of gallic acid, which produced a more robust (−12.5 ± 0.6 mV and −14.1 ± 0.6 mV, respectively) hyperpolarization of Kv1.1/Kv1.1-L155P V0.5 act (Fig. 8b, c) and hyperpolarized EM by −14.0 ± 0.6 mV and −15.2 ± 0.7 mV, respectively (Fig. 8d).
(§1) Wild-type and mutant Kv1 cDNAs were generated (Genscript, Piscataway, NJ) in the pTLNx expression vector. As previously described, we generated cRNA transcripts encoding human Kv1.1 (wild-type and mutant) and Kv1.2, by in vitro transcription using the mMessage mMachine kit (Thermo Fisher Scientific), after vector linearization, from cDNA sub-cloned into plasmids (pTLNx) incorporating Xenopus laevis β-globin 5’ and 3’ UTRs flanking the coding region to enhance translation and cRNA stability. We injected defolliculated stage V and VI Xenopus laevis oocytes (Xenoocyte, Dexter, MI, US) with Kv1 cRNAs (1–5 ng). We incubated the oocytes at 16 °C in ND96 oocyte storage solution containing penicillin and streptomycin, with daily washing, for 2 days prior to two-electrode voltage-clamp (TEVC) recording.
We performed TEVC at room temperature using an OC-725C amplifier (Warner Instruments, Hamden, CT) and pClamp10 software (Molecular Devices, Sunnyvale, CA) 2 days after cRNA injection as described in the section above. For recording, oocytes we placed in a small-volume oocyte bath (Warner) and viewed with a dissection microscope. We sourced chemicals from Sigma. We studied effects of plant extracts and of compounds, solubilized directly in bath solution (in mM): 96 NaCl, 4 KCl, 1 MgCl2, 1 CaCl2, 10 HEPES (pH 7.6). We introduced extracts or compounds into the oocyte recording bath by gravity perfusion at a constant flow of 1 ml per minute for 3 min prior to recording. Pipettes were of 1–2 MΩ resistance when filled with 3 M KCl. We recorded currents in response to voltage pulses between −80 mV and +40 mV at 10 or 20 mV intervals from a holding potential of −80 mV, to yield current-voltage relationships and examine activation kinetics. To calculate the voltage dependence of activation (V0.5), tail currents were recorded at a voltage pulse of −50 mV immediately following prepulse voltages between −80 mV and +40 mV. We analyzed data using Clampfit (Molecular Devices) and Graphpad Prism software (GraphPad, San Diego, CA, USA), stating values as mean ± SEM. We plotted raw or normalized tail currents vs. prepulse voltage and fitted with a single Boltzmann function:1 g=(A1−A2)/1+exp[V1/2−V/Vs]y+A2 where g is the normalized tail conductance, A1 is the initial value at -∞, A2 is the final value at +∞, V1/2 is the half-maximal voltage of activation and Vs the slope factor.

Kv1.1-L328V channels = target: T3, Kv1.1-L328V channels (Homo sapiens, UniProt Q09470, L328V); test: TEVC of oocytes expressing 100% Kv1.1-L328V; conditions: compound 1 µM
T3 construct: expressed in transfected cells; host or cells: Xenopus laevis oocytes
From the text: (§2) EA1 mutant G311D is in the S4-5 linker of Kv1.1 (Fig. 5a) and produces a 65% prepulse current reduction both in Kv1.1-G311D and in Kv1.1/Kv1.1-G311D channels[43],[44]; either channel type was minimally responsive to the plant extracts tested (Supplementary Figs. 3 and 4). EA1 mutant L328V (which is associated with tetany and hypomagnesemia) is located in the intracellular end of Kv1.1 S5 (Fig. 5a) and results in complete current loss in a dominant negative manner, i.e., Kv1.1-L328V and Kv1.1/Kv1.1-L328V channels are each nonfunctional. The traditional ataxia remedy plant extracts were unable to rescue Kv1.1-L328V or Kv1.1/Kv1.1-L328V function (Supplementary Figs. 5 and 6). EA1 mutant V408A is in the intracellular-proximal end of Kv1.1 S6 (Fig. 5a) and reduces current, speeds deactivation, and increases C-type inactivation of Kv1.1[46]. Here, Native American ataxia remedy extracts had relatively minor effects on Kv1.1-V408A activity, with nettle and Pacific ninebark (roots or leaves) inducing hyperpolarizing shifts in EM, and Pacific ninebark leaves inducing a negative shift in the voltage dependence of activation, although this was not quantifiable due to the very small tail currents (Supplementary Fig. 7). Effects of the extracts on Kv1.1/Kv1.1-V408A activity were also relatively minor (Supplementary Fig. 8). […]
(§3) We performed TEVC at room temperature using an OC-725C amplifier (Warner Instruments, Hamden, CT) and pClamp10 software (Molecular Devices, Sunnyvale, CA) 2 days after cRNA injection as described in the section above. […] We recorded currents in response to voltage pulses between −80 mV and +40 mV at 10 or 20 mV intervals from a holding potential of −80 mV, to yield current-voltage relationships and examine activation kinetics. To calculate the voltage dependence of activation (V0.5), tail currents were recorded at a voltage pulse of −50 mV immediately following prepulse voltages between −80 mV and +40 mV. We analyzed data using Clampfit (Molecular Devices) and Graphpad Prism software (GraphPad, San Diego, CA, USA), stating values as mean ± SEM. […]

Kv1.1-V408A channels = target: T4, Kv1.1-V408A channels (Homo sapiens, UniProt Q09470, V408A); test: TEVC of oocytes expressing 100% Kv1.1-V408A; conditions: compound 1 µM
T4 construct: expressed in transfected cells; host or cells: Xenopus laevis oocytes
From the text: as §2, §3

[3] = target: T5, Kv1.1-I182S, E192I, K195N (Kv1.1–3 M) (Homo sapiens, UniProt Q09470, E191I/I183S/K196N); test: TEVC of oocytes expressing Kv1.1-3M
T5 construct: expressed in transfected cells; host or cells: Xenopus laevis oocytes
From the text: The functional data support a Kv1.1 gallic acid-binding site similar to that predicted by the MD simulation (Fig. 10f; Supplementary Movie 1).
as §1
as §3, with “above. For recording, oocytes we placed in a small-volume oocyte bath (Warner) and viewed with a dissection microscope. We sourced chemicals from Sigma. We studied effects of plant extracts and of compounds, solubilized directly in bath solution (in mM): 96 NaCl, 4 KCl, 1 MgCl2, 1 CaCl2, 10 HEPES (pH 7.6).” for “above.”

T1 sequence (Q09470 whole entry, stated change not applied): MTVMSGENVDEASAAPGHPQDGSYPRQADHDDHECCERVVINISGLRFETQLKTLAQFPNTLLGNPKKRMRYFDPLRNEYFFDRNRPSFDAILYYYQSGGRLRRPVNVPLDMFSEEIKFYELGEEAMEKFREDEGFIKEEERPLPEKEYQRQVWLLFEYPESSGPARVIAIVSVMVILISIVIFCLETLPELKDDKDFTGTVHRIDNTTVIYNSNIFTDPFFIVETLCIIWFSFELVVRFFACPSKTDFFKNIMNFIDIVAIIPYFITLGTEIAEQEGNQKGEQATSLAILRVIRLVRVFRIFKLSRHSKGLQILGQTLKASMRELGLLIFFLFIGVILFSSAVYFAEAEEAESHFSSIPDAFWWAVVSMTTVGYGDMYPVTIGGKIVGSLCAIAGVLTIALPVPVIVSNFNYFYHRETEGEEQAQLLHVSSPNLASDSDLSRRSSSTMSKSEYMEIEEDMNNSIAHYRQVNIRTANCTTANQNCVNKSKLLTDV
T1 sequence (Q09470 whole entry L155P): as the sequence (Q09470 whole entry, stated change not applied) above, with L155P counted along it
T2 sequence (Q09470 whole entry, stated change not applied): as the sequence (Q09470 whole entry, stated change not applied) above
T2 sequence (Q09470 whole entry E283K): as the sequence (Q09470 whole entry, stated change not applied) above, with E283K counted along it
T5 sequence (Q09470 whole entry I183S/E191I/K196N): as the sequence (Q09470 whole entry, stated change not applied) above, with I183S, E191I, K196N counted along it
T3 sequence (Q09470 whole entry L328V): as the sequence (Q09470 whole entry, stated change not applied) above, with L328V counted along it
T4 sequence (Q09470 whole entry V408A): as the sequence (Q09470 whole entry, stated change not applied) above, with V408A counted along it

Compound: O=C(O)c1cc(O)c(O)c(O)c1 [gallic acid]
hyperpolarization of EM ([1]; 1 µM): –9.1 ± 0.8 mV | shift in the voltage dependence of activation (V0.5 act) ([1]; 1 µM): −6.8 ± 0.6 mV | hyperpolarization of EM ([1]; 10 µM): −14.0 ± 0.6 mV | shift in the voltage dependence of activation (V0.5 act) ([1]; 10 µM): −12.5 ± 0.6 mV | hyperpolarization of EM ([1]; 100 µM): −15.2 ± 0.7 mV | shift in the voltage dependence of activation (V0.5 act) ([1]; 100 µM): −14.1 ± 0.6 mV | EM ([1]; in presence of 1 µM compound): -45.00 ± 0.78 mV | Slope ([1]; in presence of 1 µM compound): 4.84 ± 0.56 mV | V0.5 Normalized tail current ([1]; in presence of 1 µM compound): -30.59 ± 0.60 mV | EM ([1]; in presence of 10 µM compound): -48.89 ± 0.66 mV | Slope ([1]; in presence of 10 µM compound): 4.76 ± 0.51 mV | V0.5 Normalized tail current ([1]; in presence of 10 µM compound): -36.38 ± 0.62 mV | EM ([1]; in presence of 100 µM compound): -50.11 ± 0.69 mV | Slope ([1]; in presence of 100 µM compound): 4.68 ± 0.55 mV | V0.5 Normalized tail current ([1]; in presence of 100 µM compound): -37.93 ± 0.62 mV | hyperpolarization in EM ([2]; 1 µM): −14 ± 0.7 mV | hyperpolarizing shift of V0.5 act ([2]; 1 µM): −15.5 ± 0.5 mV | EM ([2]; in presence of 1 µM compound): -47.80 ± 0.65 mV | Slope ([2]; in presence of 1 µM compound): 5.70 ± 1.12 mV | V0.5 Normalized tail current ([2]; in presence of 1 µM compound): -27.50 ± 0.51 mV | effect on channel activity (Kv1.1-L328V channels): ineffective at rescuing activity | effect on channel activity (Kv1.1-V408A channels): ineffective at rescuing activity | EC50 [3]: 345 ± 38 nM | EC50 for peak current augmentation ([3]; at −40 mV): not measurable | maximal peak current augmentation compared to Kv1.1 ([3]; at −40 mV): reduced fivefold

effect on channel activity ([1]; compound 1 µM): minimal | hyperpolarizing shift of V0.5 act ([2]; 1 µM): −12 mV | effect on channel activity (Kv1.1-L328V channels): does not rescue
Compound: tannic acid
effect on channel activity (Kv1.1-V408A channels): subtle improvements in Kv1.1-V408A function but slowed its activation

From publication PMC10244465, “Native American ataxia medicines rescue ataxia-linked mutant potassium channel activity via binding to the voltage sensing domain” (Nature Communications, 2023)
